According to patent US7169777B2, “Melanocortin receptor agonists” (Eli Lilly and Company, priority 2001, dated 2007):
Structures can show the parent of a compound that is named as a salt. Where two headings read alike, the source gives them in different places.

Experiments:
MC4 [1] = target: T1, MC4 (Homo sapiens, UniProt P32245); assay: Melanocortin receptor whole cell cAMP accumulation assay (MC4R); type: cell-based; set-up: expressed in transfected cells; host or cells: HEK 293 (stably transfected); settings: for Relative Eff.: relative efficacy compared to NDP-alpha-MSH, defined as a 100% agonist
T1 sequence (P32245 whole entry): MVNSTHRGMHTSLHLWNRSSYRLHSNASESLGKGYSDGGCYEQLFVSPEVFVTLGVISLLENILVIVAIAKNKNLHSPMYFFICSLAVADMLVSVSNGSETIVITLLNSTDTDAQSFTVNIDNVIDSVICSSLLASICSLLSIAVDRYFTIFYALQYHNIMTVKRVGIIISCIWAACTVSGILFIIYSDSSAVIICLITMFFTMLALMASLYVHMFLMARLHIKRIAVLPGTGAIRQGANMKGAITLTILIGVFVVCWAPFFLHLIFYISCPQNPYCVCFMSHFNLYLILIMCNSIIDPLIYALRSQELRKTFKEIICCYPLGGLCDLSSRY
Method: Melanocortin Receptor Whole Cell cAMP Accumulation Assay
These are serially diluted in 100% DMSO. The compound plate is further diluted 1:200 in compound dilution buffer (HBSS-092, 1 mM Ascorbic Acid, 1 mM IBMX, 0.6% DMSO, 0.1% BSA). […] Transfer 20 μl from this plate into four PET 96-well plates (all assays are performed in duplicate for each receptor).
[…] cells stably transfected with the MC3R and MC4R were grown in DMEM containing 10% FBS and 1% Antibiotic/Antimycotic Solution. On the day of the assay the cells were dislodged with enzyme free cell dissociation solution and resuspended in cell buffer (HBSS-092, 0.1% BSA, 10 mM HEPES) at 1×e6 cells/ml. Add 40 μl of cells/well to the PET 96-well plates containing 20 ul diluted compound and control. Incubate @ 37° C. in a waterbath for 20 minutes. Stop the assay by adding 50 μl Quench Buffer (50 mM Na Acetate, 0.25% Triton X-100).
Radioligand binding assays were run in SPA buffer (50 mM Sodium Acetate, 0.1% BSA). The beads, antibody and radioligand were diluted in SPA buffer to provide sufficient volume for each 96-well plate. […] The plates were counted in a Wallac MicroBeta counter after a 12-hour incubation.
The data was converted to pmoles cAMP using a standard curve assayed under the same conditions. The data was analyzed using Activity Base software to generate agonist potencies (EC50) and percent relative efficacy data to NDP-aMSH.

MC4 [2] = target: T1, MC4; assay: Radioligand binding assay (125I-NDP-alpha-MSH competition, SPA, membranes of transfected HEK 293 cells); set-up: expressed in transfected cells; host or cells: HEK 293 (stably transfected), membrane preparation
Method: HEK 293 cells transfected with human or rat melanocortinin receptors are grown either as adherent monolayers or suspension culture. Monolayer cells are grown in roller bottle cultures at 37° C. and 5% CO2/air atmosphere in a 3:1 mixture of Dulbecco's modified Eagle medium (DMEM) and Ham's F12 containing 25 mM […], 100 units/ml penicillin G, 100 microgram/ml streptomyocin, 250 nanogram/ml amphoterin B, 300 microgram/ml genticin and supplemented with 5% fetal bovine serum. […] Cells are harvested by centrifugation, washed in PBS, and pellets are stored frozen at −80° C. until membrane preparations.
The cell pellets are resuspended in 10 volumes of membrane preparation buffer (i.e., 1 g pellet to 10 ml buffer) having the following composition: 50 mM Tris pH 7.5 @ 4° C., 250 mM sucrose, 1 mM MgCl2, Complete® EDTA-free protease inhibitor tablet (Boehringer Mannheim), and 24 micrograms/ml DNase I (Sigma, St. Louis, Mo.). The cells are homogenized with a motor-driven dounce using 20 strokes, and the homogenate is centrifuged at 38,000×g at 4° C. for 40 minutes. The pellets are resuspended in membrane preparation buffer at a concentration of 2.5–7.5 mg/ml and 1 milliliter aliquots of membrane homogenates are quickly frozen in liquid nitrogen and then stored at −80° C.
Solutions of a compound of formula I (300 picomolar to 30 micromolar) or unlabelled NDP-alpha-MSH (1 picomolar to 100 nanomolar) are added to 150 microliters of membrane binding buffer to yield final concentrations (listed in parantheses). The membrane binding buffer has the following composition: 25 mM HEPES pH 7.5; 10 mM CaCl2; 0.3% BSA). […] Additionally, fifty microliters of SPA beads (5 mg/ml) are added and the resulting mixture is agitated briefly and incubated for 10 hours at room temperature. The radioactivity is quantified in a Wallac Trilux Microplate Scintillation counter. IC50 values obtained in competition assays are converted to affinity constants (Ki values) using the Cheng-Prusoff equation: Ki=IC50/(1+D/Kd).

rodents = settings: injected intracerebroventricularly (ICV); NPY, ob/ob, agouti, fasted models; cited from earlier work
[3] = MC4 agonist potency, read-out: MC4 EC50
[4] = 125I-NDP-alpha-MSH competition, Ki from IC50 by Cheng-Prusoff, read-out: MC4 Binding Ki

Molecule | EC50 (MC4 [1]; [3]) | Relative Eff. (MC4 [1]) | Ki (MC4 [2]; [4]) | food intake (rodents) | EC50 (MC4 [1]) | Ki (MC4 [2])
CC(C)CC(CC(C)C)N1CCN(C(=O)[C@@H](Cc2ccc(Cl)cc2)NC(=O)CC2NCc3ccccc32)CC1.Cl.Cl (some centres unmarked) [Compd 3251] | 76.7 nM | 67.0 | 5.8 nM | – | – | –
CC(C)CN(CC(C1CCCCC1)N1CCN(C(=O)C(Cc2ccc(Cl)cc2)NC(=O)CC2NCc3ccccc32)CC1)S(C)(=O)=O (single isomer, unassigned) [Example N71, N-(1-(4-Chloro-benzyl)-2-{4-[1-cyclohexyl-2-(isobutyl-methanesulfonyl-amino)-ethyl]-piperazin-1-yl}-2-oxo-ethyl)-2-(2,3-dihydro-1H-isoindol-1-yl)-acetamide dihydrochloride salt] | 8.4 nM | 102.6 | 11.3 nM | – | – | –
SHU-9119 | – | – | – | reverses this effect and can induce hyperphagia | – | –
CCN(CC)CC(c1ccccc1F)N1CCN(C(=O)[C@@H](Cc2ccc(Cl)cc2)NC(=O)[C@H]2Cc3ccccc3C(C)(C)N2)CC1 (some centres unmarked) [Compd 814] | 127 nM | 108.6 | 18.1 nM | – | – | –
melanotanin-II [MT-II] | – | – | – | reduces food intake | – | –
O=C(CC1NCc2ccccc21)N[C@H](Cc1ccc(Cl)cc1)C(=O)N1CCN(C(CC2CCCCC2)CN2CCOCC2)CC1 (mixture of isomers) [Example N38, N-{1-(4-chloro-benzyl)-2-[4-(1-cyclohexylmethyl-2-morpholine-4-yl-ethyl)-piperazin-1-yl]-2-oxo-ethyl}-2-(2,3-dihydro-1H-isoindol-1-yl)-acetamide tri(trifluoroacetate) salt] | – | 115.6 | – | – | 69.3 nM | 10 nM
